# From patent US20200022967A1, “Use of 2-carboxamide cycloamino urea derivatives in the treatment of EGFR dependent diseases or diseases that have acquired resistance to agents that target EGFR family members” (Novartis AG, priority 2010, published 2020)
# What was measured:
# [1] = tested on: BT474; assay: Cell proliferation in BT474 breast cancer model; assay type: cell-based, human
# [2] = Body weight change in BT474 xenograft mice (Example 1); assay type: in vivo; conditions: for mean body weight change: not significant; for mean change of body weight: 50 mg/kg p.o. once daily, p<0.05
# Experimental: (§1) Tumor volumes were measured with calipers and determined according to the formula: length×diameter^2×π/6. […] Regressions (%) were calculated according to the formula ((mean tumor volume at end of treatment-mean tumor volume at start of treatment)/mean tumor volume at start of treatment)×100. Body weights and tumor volumes were recorded twice a week.
# (§2) Where applicable, data is presented as mean±SEM. For all tests, the level of significance was set at p<0.05. For tumor volumes, comparisons between treatment groups and vehicle control group were done using one-way ANOVA followed by Dunnett's test. The level of significance of body weight change within a group between the start and the end of the treatment period was determined using a paired t-test. Comparisons of delta body weights between treatment and vehicle control groups were performed by a one-way ANOVA followed by a post hoc Dunnett's test.
# [3] = tested on: NCI-N87 tumors; assay: NCI-N87 subcutaneous gastric cancer xenograft, antitumor activity (Example 2); assay type: in vivo, mice; conditions: 50 mg/kg p.o. once daily
# Experimental: Experiments were performed in female HsdNpa:Athymic Nude-nu mice approximately 8-12 weeks of age at treatment start. All animals were housed under Optimized Hygienic conditions in Makrolon type III cages (max. 10 animals per cage) with free access to food and water.
# NCI-N87 cells (obtained from the American Type Culture Collection), which are of gastric origin and ErbB2 amplified, were grown in DMEM culture medium containing 4.5 g/l glucose supplemented with 10% heat-inactivated FCS, 2 mM L-glutamine, and 1 mM sodium pyruvate. The cells were incubated at 37° C. in a 5% CO2 humidified atmosphere. Cells were harvested with trypsin (0.25% w/v)-EDTA (0.53 mM), re-suspended in culture medium (with additives) and counted with a Casy® system. Cell culture reagents were purchased from BioConcept (Allschwil, Switzerland).
# NCI-N87 tumors were established from fragments of approximately 40 mg implanted subcutaneously into the female HsdNpa:Athymic Nude-nu mice with a trocar needle. Treatment started when the tumors reached a size of approximately 110 mm^3, 25 days post implantation.
# The Compound was fully dissolved in NMP. Then, PEG300 and liquified Solutol were added (in sequence with vortexing after addition of each reagent). Water was added immediately prior to administration to the animals.
# as §1
# Where applicable, data is presented as mean±SEM. For all tests, the level of significance was set at p<0.05. For tumor volumes, comparisons between treatment groups and vehicle control group were done using one-way ANOVA followed by Dunnett's test. The level of significance of body weight change within a group between the start and the end of the treatment period was determined using a paired t-test. […]
# [4] = Body weight change in NCI-N87 xenograft mice (Example 2); assay type: in vivo; conditions: 50 mg/kg p.o. once daily; not significant
# Experimental: as §1, §2
# [5] = tested on: BT-474 tumors; assay: BT474 orthotopic xenograft, Compound A and trastuzumab combination (Example 3); assay type: in vivo, mice
# Experimental: The Compound was fully dissolved in NMP. Then, PEG300 and liquified Solutol were added (in sequence with vortexing after addition of each reagent).
# Where applicable, data is presented as mean±SEM.
# [6] = Body weight nadir and deaths in NCI-N87 trastuzumab study (Example 4); assay type: in vivo, mice
# Source text: Treatments started 9 days post tumor cell implantation and lasted for 30 consecutive days (or until tumor volume=2000 mm^3).
# [7] = tested on: HBCx-5 xenograft tumor; assay: HBCx-5 breast cancer xenograft, antitumor activity (Example 5); assay type: in vivo, mice; conditions: Compound A 50 mg/kg p.o. daily for 42 days, single agent; p<0.001
# Experimental: Compound A was suspended at mg/ml in 0.5% methylcellulose (Sigma Aldrich, St. Louis, Mo.). It was homogenized by stirring vortexing and sonication. The suspension was stored at 4° C. for 7 days protected from light. […] Stock solution at 21 mg/ml was diluted just before administration at 1 mg/ml with sterile water for injection. Capecitabine (Xeloda®, Roche) at […] was kept at 4° C. protected from light. Capecitabine pellets were crushed and suspended in NaCl 0.9%.
# Dose was body weight adjusted at each injection.
# Capecitabine was administered by oral gavage (p.o.) at […], five times per week for two weeks (i.e., five consecutive dosing days/week). After a one week rest, a second treatment cycle was performed.
# [8] = Body weight nadir and deaths in NCI-N87 lapatinib study (Example 6)
# Experimental: Treatments started eight days post tumor cell implantation and lasted for 59 consecutive days or until tumor volume=1000 mm^3. […] For the b.i.d. dosing schedule, the first dose was given p.m. on Day 1 and last dose a.m. on Day 22. […] Body weights were recorded on Days 1-5, on each treatment day (except weekends), and twice weekly thereafter until end of the study.
# [9] = Group 3: Compound A 25 mg/kg p.o. once daily
# [10] = Group 4: Compound A 50 mg/kg p.o. once daily
# [11] = Group 2: Compound A 12.5 mg/kg p.o. once daily
smiles,measurement,setting,value
"Cc1nc(NC(=O)N2CCC[C@H]2C(N)=O)sc1-c1ccnc(C(C)(C)C(F)(F)F)c1 [Compound A, (S)-Pyrrolidine-1,2-dicarboxylic acid 2-amide 1-({4-methyl-5-[2-(2,2,2-trifluoro-1,1-dimethyl-ethyl)-pyridin-4-yl]-thiazol-2-yl}-amide)]",cell death,"[1]; BT474, overexpressed ErbB2",induces cell death
same,GI50,"[1]; BT474 breast cancer model, ErbB2 amplified, read-out: median GI50",139 ± 82 nM
same,mean body weight change,[2]; 12.5 mg/kg p.o. once daily,1.4±1.2%
same,mean body weight change,[2]; 25 mg/kg p.o. once daily,−1.2±1.2%
same,mean change of body weight,[2]; first of the two experiments,10.6±4.1%
same,mean change of body weight,[2]; second of the two experiments,8.2±2.6%
same,regression,[3],11%
same,antitumor effect as compared to vehicle,[3]; p<0.05 ANOVA,statistically significant antitumor effect
same,mean change of tumor volume,[3]; vehicle 694.0±93.5,−11.8±17.2 mm^3
same,mean change of body weight,[4],3.8±2.1%
same,Change Tumor Volume,"[5]; B: Compound A 12.5 mg/kg p.o. daily, control C 584.2",125.7
same,T/C,"[5]; Compound A 12.5 mg/kg p.o. daily, single agent",21.5%
same,antitumor effect,"[5]; Compound A 50 mg/kg p.o. daily, single agent, p<0.05 Mann-Whitney",statistically significant antitumor effect
same,B/C,"[5]; change tumor volume ratio, Compound A 12.5 mg/kg vs control",0.215
same,Deaths (TR/NTR),[6]; Group 2 (8 animals): Compound A 12.5 mg/kg p.o. once daily,0
same,Mean BW Nadir (lowest group mean BW),"[6]; Group 2: Compound A 12.5 mg/kg p.o. once daily, Day 22",−7% (Day 22)
same,Deaths NTR = non-treatment related,[6]; [9],NTR: 1
same,Deaths TR = treatment-related,[6]; [9],TR: 1
same,Mean BW Nadir (lowest group mean BW),"[6]; Group 3: Compound A 25 mg/kg p.o. once daily, Day 26",−12.2% (Day
same,Deaths NTR = non-treatment related,[6]; [10],NTR: 0
same,Deaths TR = treatment-related,[6]; [10],TR: 4
same,Mean BW Nadir (lowest group mean BW),"[6]; Group 4: Compound A 50 mg/kg p.o. once daily, Day 12",−13.1% (Day
same,T/C,[7],17.57%
same,Deaths NTR = non-treatment related,[8]; [11],NTR: 1
same,Deaths TR = treatment-related,[8]; [11],TR: 1
same,Deaths NTR = non-treatment related,[8]; [9],NTR: 1
same,Deaths TR = treatment-related,[8]; [9],TR: 1
same,Mean BW Nadir (lowest group mean BW),"[8]; Group 3: Compound A 25 mg/kg p.o. once daily, Day 14",−8.4%
